Activity calls are given as the source filed them.
Tests used:
Format in all cases: functional, organism-based
Penicillium oxalicum = assay: Antimicrobial activity against Penicillium oxalicum CBS 219.30 at 25 ug
Bacillus subtilis = assay: Antimicrobial activity against Bacillus subtilis ATCC 6633 at 25 ug
Micrococcus luteus = assay: Antimicrobial activity against Micrococcus luteus ATCC 9341 at 25 ug
Escherichia coli = assay: Antimicrobial activity against Escherichia coli ATCC 25922 at 25 ug

Measured: Activity

COc1ccc2c(c1OC)CN(C)c1c-2cc(OC)c2cc3c(cc12)OCO3
inactive: all assays above

COc1cc2c(c3c1-c1ccc4cc5c(cc4c1N(C)C3)OCO5)OCO2
inactive: all assays above

CN1Cc2c(ccc3c2OCO3)-c2ccc3cc4c(cc3c21)OCO4
inactive: all assays above

COc1ccc2c(c1OC)CN(C)c1c-2ccc2cc3c(cc12)OCO3
inactive: all assays above

Source: ChEMBL document CHEMBL1158952, “An Nmr Study of Four Benzophenanthridine Alkaloids” (J Nat Prod, 1991)
